The record followed here is patent US7078499B2, “Nucleotide analogues comprising a reporter moiety and a polymerase enzyme blocking moiety” (GE Healthcare UK Limited, priority 2000, dated 2006).

Common to all, as to format: biochemical
One test addresses T1, T7 DNA polymerase (Escherichia phage T7, UniProt P00581).
T1 construct: purchased AP Biotech
The experiment in a line: Mesophilic DNA polymerase primer extension, T7. The note with it: DNA template, 37° C. for 20–40 minutes; for primer extended by at least one base within assay time (grade): TTP replaced entirely by test compound. More on the design: key to result of incorporation (termination / further chain extension): T: Incorporation results in termination; E: Incorporation permits further chain extension; T/E: Predominant product is primer extended by one base, but evidence of some further extension also observed. On the procedure: (§1) DNA polymerase assays were performed using Sequence 1 as primer and Sequence 2 as template. • Sequence 1 5′[Cy3]TAACTCATTAACAGGATC 3′ • Sequence 2 5′AT TCGCGGTATTCTGGTATGAAGCTTTTAGATCCTGTTAATGAGTTA GTA3′
(§2) The template (Sequence 2) was designed such that the base (underlined) immediately adjacent to the 3′ end of the hybridised primer is complementary to the nucleotide test compound. Nucleotide test compounds were compounds (6) (4′-C-(glycylaminomethyl)thymidine triphosphate), (8) (4′-C-(N-trifluoroacetyaminomethyl)thymidine triphosphate) and (9) (4′-C-(aminomethyl)thymidine triphosphate) as described above.
(§3) Primer extension reactions were performed using the above primers in the presence of 40 to 80 μM of nucleotide triphosphates. Positive control reactions contained all four native nucleotide triphosphates. For the other reactions the TTP was replaced with either a 2:1 ratio of […] for the terminator control, or entirely by the test compound The enzymes were used at a final concentration of 0.175 units/μl and a magnesium ion concentration of 2.5 mM in buffers supplied by the manufacturer. The primer and template concentrations were 0.5 pmol/μl and 2 pmol/μl respectively.
(§4) Extension reactions preformed with mesophilic polymerases were carried out by mixing all the components of the reaction except the enzyme and heating to 70° C. for 5 min. After the reactions had cooled to room temperature 0.175 units of the enzyme were added and the reactions heated to 37° C. for 20–40 minutes. The following enzymes were used: T7 DNA polymerase (T7); Sequenase 2™ (Seq); Klenow fragment of DNA polymerase 1 (Klen); phi-29 DNA polymerase (Phi-29); T4 DNA polymerase (T4) (all from AP Biotech) and Bst DNA polymerase (Bst) (Cambio Ltd).
(§5) The reactions were stopped by adding a 0.5 volume aliquot of 80% formamide containing 0.1% (w/v) bromophenol blue and 0.1% (w/v) cresol blue. The reaction products were separated by denaturing gel electrophoresis at a constant power of 45 W on 16% polyacrylamide gels containing 50% urea.
(§6) Gels were scanned for Cy3 fluorescence on a Molecular Dynamics Fluorimager and the data analysed using Molecular Dynamics ImageQuant 5 software.
(§7) The incorporation of a test nucleotide triphosphate results in the appearance on a polyacrylamide gel of a single band corresponding to a single base extension product. If, however, the enzyme adds additional bases then further bands would be observed that corresponded to either the full-length product or positions of other complementary bases in the template.

The target in another test is T2, Tth DNA polymerase (Thermus thermophilus, UniProt P52028).
T2 construct: purchased APBiotech
T2 sequence (P52028 whole entry): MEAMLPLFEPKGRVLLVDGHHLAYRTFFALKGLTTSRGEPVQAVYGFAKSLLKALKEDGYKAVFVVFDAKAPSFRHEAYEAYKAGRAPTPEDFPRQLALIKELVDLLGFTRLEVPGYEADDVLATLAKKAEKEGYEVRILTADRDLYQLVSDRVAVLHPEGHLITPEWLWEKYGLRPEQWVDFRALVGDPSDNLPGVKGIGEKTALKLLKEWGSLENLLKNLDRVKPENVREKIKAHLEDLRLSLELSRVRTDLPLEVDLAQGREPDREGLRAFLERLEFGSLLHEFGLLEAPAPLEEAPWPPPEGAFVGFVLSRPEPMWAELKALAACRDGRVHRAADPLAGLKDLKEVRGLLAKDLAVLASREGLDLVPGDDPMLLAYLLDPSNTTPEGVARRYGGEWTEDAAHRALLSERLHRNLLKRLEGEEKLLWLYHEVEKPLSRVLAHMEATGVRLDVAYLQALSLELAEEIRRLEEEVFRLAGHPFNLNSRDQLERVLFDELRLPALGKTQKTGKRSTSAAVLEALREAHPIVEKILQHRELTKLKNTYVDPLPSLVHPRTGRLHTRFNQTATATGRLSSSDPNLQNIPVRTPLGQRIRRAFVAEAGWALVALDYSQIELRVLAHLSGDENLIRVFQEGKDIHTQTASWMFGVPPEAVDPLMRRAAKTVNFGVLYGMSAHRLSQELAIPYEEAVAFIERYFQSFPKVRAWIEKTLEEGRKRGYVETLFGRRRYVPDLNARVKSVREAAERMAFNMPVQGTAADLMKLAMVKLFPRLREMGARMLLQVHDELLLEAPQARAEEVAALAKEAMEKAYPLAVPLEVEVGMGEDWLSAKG
Kind of test: Thermostable polymerase under reverse transcription conditions, Tth. Further details: key to result of incorporation (termination / further chain extension): T: Incorporation results in termination; E: Incorporation permits further chain extension; T/E: Predominant product is primer extended by one base, but evidence of some further extension also observed; key to primer extended by at least one base within assay time (grade): −: No extension within assay time; +/−: up to 25% of primer extended by at least one base within assay time; +: up to 50% of primer extended by at least one base within assay time; ++: up to 75% of primer extended by at least one base within assay time; +++: essentially all primer extended by at least one base within assay time. The conditions noted are these: RNA template, 2.5 mM Manganese ions; for primer extended by at least one base within assay time (grade): Tth reaction buffer. Here is the method:
as §1, §2, §3
(§8) Extension reactions with thermophilic enzymes were performed by initially denaturing the fully assembled reactions at 70° C. for 5 min. followed by 45° C. for 20–40 minutes. The following enzymes were used: Taq DNA polymerase (Taq); Thermosequenase (TS); Thermosequenase II (TSII); Thermosequenase E (TSE), Tfl DNA polymerase (Tfl); Tth DNA polymerase (Tth), deltaTts DNA polymerase (deltaTts), deltaTts D DNA polymerase (dettaTTSD) (all from APBiotech); Pfu DNA polymerase (Pfu) (Stratagene Ltd); Vent™ DNA polymerase (Vent) (New England Biolabs).
(§9) Reverse transcriptase reactions were performed essentially as described above for thermophilic and mesophilic enzymes. The template for these reactions was the RNA equivalent of sequence 2. All the thermophilic enzymes were assayed in Tth reaction buffer (Cambio Ltd, Cambridge UK) containing 2.5 mM Manganese ions. The following enzymes were used: Thermosequenase (TS1); Thermosequenase II (TSII); delta Tts DNA polymerase (deltaTts); delta Tts D DNA polymerase (deltaTtsD) (all from APBiotech); Retrotherm reverse transcriptase (Retroth) (Cambio Ltd); Tth DNA polymerase (Tth) (Cambio Ltd.).
as §5, §6, §7

The target of the next test is T3, phi-29 DNA polymerase (Bacillus phage phi29, UniProt P03680).
T3 construct: purchased AP Biotech
T3 sequence (P03680 whole entry): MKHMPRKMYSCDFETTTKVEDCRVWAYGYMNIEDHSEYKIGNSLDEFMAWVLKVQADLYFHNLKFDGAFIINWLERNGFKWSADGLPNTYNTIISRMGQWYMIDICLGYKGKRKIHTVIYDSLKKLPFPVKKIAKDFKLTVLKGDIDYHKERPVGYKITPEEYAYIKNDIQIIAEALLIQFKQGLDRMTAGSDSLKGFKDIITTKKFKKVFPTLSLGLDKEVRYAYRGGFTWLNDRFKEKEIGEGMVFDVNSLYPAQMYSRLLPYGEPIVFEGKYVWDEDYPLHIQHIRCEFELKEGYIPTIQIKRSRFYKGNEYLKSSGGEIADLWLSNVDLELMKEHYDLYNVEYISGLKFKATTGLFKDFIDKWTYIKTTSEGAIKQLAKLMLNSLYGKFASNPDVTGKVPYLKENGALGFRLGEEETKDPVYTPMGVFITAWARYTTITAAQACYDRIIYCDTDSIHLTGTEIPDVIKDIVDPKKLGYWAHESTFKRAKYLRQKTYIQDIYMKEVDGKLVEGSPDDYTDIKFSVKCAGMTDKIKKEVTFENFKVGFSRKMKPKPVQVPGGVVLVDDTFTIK
The experiment in a line: Mesophilic DNA polymerase primer extension, phi-29. Further details: key to result of incorporation (termination / further chain extension): T: Incorporation results in termination; E: Incorporation permits further chain extension; T/E: Predominant product is primer extended by one base, but evidence of some further extension also observed. The note with it: DNA template, 37° C. for 20–40 minutes; for primer extended by at least one base within assay time (grade): TTP replaced entirely by test compound. On the procedure: as §1, §2, §3, §4, §5, §6, §7

Test [1] relates to delta Tts D DNA polymerase. Kind of test: Thermostable polymerase under reverse transcription conditions, delta TtsD. Further details: key to result of incorporation (termination / further chain extension): T: Incorporation results in termination; E: Incorporation permits further chain extension; T/E: Predominant product is primer extended by one base, but evidence of some further extension also observed; key to primer extended by at least one base within assay time (grade): −: No extension within assay time; +/−: up to 25% of primer extended by at least one base within assay time; +: up to 50% of primer extended by at least one base within assay time; ++: up to 75% of primer extended by at least one base within assay time; +++: essentially all primer extended by at least one base within assay time. The note with it: RNA template, 2.5 mM Manganese ions; for primer extended by at least one base within assay time (grade): Tth reaction buffer. Here is the method: as §1, §2, §3, §8, §9, §5, §6, §7

The test system of test [2] is deltaTts D DNA polymerase. Kind of test: Thermostable DNA polymerase primer extension, delta TTSD. Further details: key to result of incorporation (termination / further chain extension): T: Incorporation results in termination; E: Incorporation permits further chain extension; T/E: Predominant product is primer extended by one base, but evidence of some further extension also observed. The note with it: DNA template, 45° C. for 20–40 minutes; for primer extended by at least one base within assay time (grade): TTP replaced entirely by test compound. Here is the method: as §1, §2, §3, §8, §5, §6, §7

The next test relates to Thermosequenase. The experiment in a line: Thermostable DNA polymerase primer extension, TS. More on the design: key to result of incorporation (termination / further chain extension): T: Incorporation results in termination; E: Incorporation permits further chain extension; T/E: Predominant product is primer extended by one base, but evidence of some further extension also observed. The conditions noted are these: DNA template, 45° C. for 20–40 minutes; for primer extended by at least one base within assay time (grade): TTP replaced entirely by test compound. Here is the method: as §1, §2, §3, §8, §5, §6, §7

T1 sequence (P0AA25 2-109): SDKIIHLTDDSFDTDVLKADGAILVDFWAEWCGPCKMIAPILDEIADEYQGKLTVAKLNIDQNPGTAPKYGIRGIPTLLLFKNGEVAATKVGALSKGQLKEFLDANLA
T1 sequence (P00581 whole entry): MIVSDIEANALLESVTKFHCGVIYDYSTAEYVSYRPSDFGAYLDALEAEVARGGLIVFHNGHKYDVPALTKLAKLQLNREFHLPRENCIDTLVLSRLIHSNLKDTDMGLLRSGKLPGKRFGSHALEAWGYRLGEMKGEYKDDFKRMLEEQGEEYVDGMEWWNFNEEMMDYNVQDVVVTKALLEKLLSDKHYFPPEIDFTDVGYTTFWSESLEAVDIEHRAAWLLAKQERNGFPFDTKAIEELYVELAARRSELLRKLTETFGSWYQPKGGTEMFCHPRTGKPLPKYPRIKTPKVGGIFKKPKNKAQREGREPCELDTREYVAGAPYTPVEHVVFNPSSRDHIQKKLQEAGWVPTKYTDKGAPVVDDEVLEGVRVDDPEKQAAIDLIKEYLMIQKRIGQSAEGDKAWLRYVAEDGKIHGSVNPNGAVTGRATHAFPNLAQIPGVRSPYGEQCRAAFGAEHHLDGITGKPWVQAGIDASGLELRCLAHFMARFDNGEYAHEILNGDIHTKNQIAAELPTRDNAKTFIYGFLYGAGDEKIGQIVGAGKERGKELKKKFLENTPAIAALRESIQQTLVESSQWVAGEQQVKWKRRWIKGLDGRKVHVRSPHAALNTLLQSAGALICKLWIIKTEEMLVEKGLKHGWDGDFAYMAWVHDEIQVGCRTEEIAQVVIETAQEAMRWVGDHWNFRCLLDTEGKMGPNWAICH

For “4′-C-(Aminomethyl)thymidine triphosphate [compound (9)]”, the “result of incorporation (termination / further chain extension)” value at T7 DNA polymerase is reported as “T/E”; on Tth DNA polymerase, “T”; at phi-29 DNA polymerase, “T”; in test [1] it was “E”; in test [2] it was “T/E”; in the test with Thermosequenase, “T”. In addition, the “primer extended by at least one base within assay time (grade)” value (shortened to “primer extended”) is on record as “+/− (up to 25% of primer extended by at least one base within assay time)” on T7 DNA polymerase; “+++” on Tth DNA polymerase; “+/− (up to 25% of primer extended by at least one base within assay time)” on phi-29 DNA polymerase; “+++” in test [1]; “++ (up to 75% of primer extended by at least one base within assay time)” in test [2]; “+ (up to 50% of primer extended by at least one base within assay time)” with Thermosequenase.
Turning to “4′-C-(Glycylaminomethyl)thymidine triphosphate [compound (6)]”, the “result of incorporation (termination / further chain extension)” value is given as “T/E” at T7 DNA polymerase; “T” on Tth DNA polymerase; “T” on phi-29 DNA polymerase; “E” in test [1]; “T” in test [2]; “T” in the test on Thermosequenase. The “primer extended” value at T7 DNA polymerase is given as “+/− (up to 25% of primer extended by at least one base within assay time)”; on Tth DNA polymerase, “+++”; at phi-29 DNA polymerase, “+/− (up to 25% of primer extended by at least one base within assay time)”; in test [1], “+++”; in test [2] it was “++ (up to 75% of primer extended by at least one base within assay time)”; with Thermosequenase it was “+ (up to 50% of primer extended by at least one base within assay time)”.
In the case of `Cc1cn([C@H]2C[C@H](O)[C@@](CNC(=O)C(F)(F)F)(COP(=O)(O)OP(=O)(O)OP(=O)(O)O)O2)c(=O)[nH]c1=O` [compound (8), 4′-C-(N-trifluoroacetylaminomethyl)thymidine triphosphate], the “result of incorporation (termination / further chain extension)” value was “T/E” at T7 DNA polymerase; “T” at Tth DNA polymerase; “T” on phi-29 DNA polymerase; “E” in test [1]; “T/E” in test [2]; “T” in the test with Thermosequenase. In addition, the “primer extended” value was “+/− (up to 25% of primer extended by at least one base within assay time)” at T7 DNA polymerase; “+++” at Tth DNA polymerase; “+/− (up to 25% of primer extended by at least one base within assay time)” at phi-29 DNA polymerase; “+++” in test [1]; “++ (up to 75% of primer extended by at least one base within assay time)” in test [2]; “+ (up to 50% of primer extended by at least one base within assay time)” in the test with Thermosequenase.
